Experimental data as given in patent US10117950B2, “Compounds and compositions for the treatment of ocular disorders” (Graybug Vision, Inc., priority 2015, dated 2018).
Read-outs that look alike come from different tables or passages of the source.

Legend:
[1] = In vitro stability of brinzolamide and dorzolamide NCEs (RP-HPLC); conditions: PBS pH 7, 10% DMSO; for in vitro stability / degradation kinetics: 37° C. and accelerated conditions, 14-19 days; for primary compound remaining: 37° C.
Experimental: The samples were incubated at 37° C. or 50° C. to simulate physiological and accelerated degradation conditions, respectively. At various time points, 100 μL of the solution was collected, diluted 10-fold with MeCN+0.1% formic acid, filtered through a 0.2 μm nylon syringe filter and analyzed by RP-HPLC.

[2] = target: T1, bovine erythrocyte carbonic anhydrase II (Bos taurus, UniProt P00921); test: Carbonic anhydrase II inhibition, colorimetric 4-nitrophenyl acetate hydrolysis; format: biochemical; conditions: for IC50: n = 2
T1 construct: purified bovine erythrocyte carbonic anhydrase II; from tissue; host or cells: bovine erythrocytes
T1 sequence (P00921 whole entry): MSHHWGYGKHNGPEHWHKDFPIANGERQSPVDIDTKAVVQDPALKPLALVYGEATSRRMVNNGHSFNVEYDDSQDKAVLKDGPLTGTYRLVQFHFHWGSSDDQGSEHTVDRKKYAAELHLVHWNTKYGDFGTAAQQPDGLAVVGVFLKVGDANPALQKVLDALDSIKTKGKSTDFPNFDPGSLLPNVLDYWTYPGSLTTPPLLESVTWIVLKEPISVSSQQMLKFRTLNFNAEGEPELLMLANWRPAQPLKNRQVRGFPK
Experimental: The catalytic activity of carbonic anhydrase II was assessed by a colorimetric method, in which 4-nitrophenyl acetate is hydrolyzed to acetate and nitrophenolate. The nitrophenolate ionizes to generate a bright yellow anion that is readily detected by measuring its absorbance at 350-400 nm. […] Acetazolamide was added as a positive control and 100% DMSO was added as a negative control. The reaction was initiated with the addition of 20 μL of 4-nitrophenyl acetate (0.7 mM in ethanol).

[3] = Determination of drug solubility; format: physicochemical; conditions: for solubility: thermodynamic from solid
Experimental: For each test, approximately 5-10 mg was transferred to a 10 mL glass vial. Aqueous or organic solvent was added to each vial to achieve an overall concentration of 50 mg/mL. After vortexing aggressively for 2-3 minutes and sonicating in a bath sonicator for 5 minutes, undissolved drug was spun down at 1200 rpm for 5 minutes to generate a pellet. The supernatant was collected and filtered through a 0.2 μm nylon syringe filter into HPLC vials for drug content analysis. Drug concentration was determined by comparing against a standard calibration curve.

[4] = In vitro stability of bifunctional conjugates (HPLC, 254 nm); format: physicochemical; conditions: PBS pH 7.0, 20% DMSO
Experimental: Briefly, brinzolamide-PLA (n=4)-succinate-5-hydroxy-sunitinib (60-1) or dorzolamide-PLA (n=4)-succinate-5-hydroxy-sunitinib (58-5) was first dissolved in a solution of PBS (pH 7.0) with 20% DMSO (v/v) and incubated at 37° C. or 60° C. for 14 days.

[5] = DCM, organic solvent or mixture, read-out: Solubility DCM
[6] = DMSO, organic solvent or mixture, read-out: Solubility DMSO
[7] = water / aqueous solvent, read-out: Solubility Water

CCN[C@H]1C[C@H](C)S(=O)(=O)c2sc(S(=O)(=O)NC(=O)[C@H](C)O)cc21 [19-3, dorzolamide-PLA (n=1)]
in vitro stability / degradation kinetics [1]: the most stable | IC50 [2]: 3.32 ± 2.71 nM

CCN[C@H]1C[C@H](C)S(=O)(=O)c2sc(S(=O)(=O)NC(=O)[C@H](C)OC(=O)[C@H](C)OC(=O)[C@H](C)OC(C)=O)cc21 [26-1]
solubility [3, 5]: > 50 mg/mL | solubility [3, 6]: > 50 mg/mL | solubility [3, 7]: > 50 mg/mL | IC50 [2]: 16.4 ± 7.25 nM

CCN[C@H]1C[C@H](C)S(=O)(=O)c2sc(S(=O)(=O)NC(=O)[C@H](C)OC(=O)[C@H](C)OC(=O)[C@H](C)OC(=O)[C@H](C)OC(C)=O)cc21 [27-1]
solubility [3, 5]: > 50 mg/mL | solubility [3, 6]: > 50 mg/mL | solubility [3, 7]: < 1 mg/mL | IC50 [2]: 44.1 ± 14.8 nM

CCN[C@H]1C[C@H](C)S(=O)(=O)c2sc(S(=O)(=O)NC(=O)[C@H](C)OC(=O)[C@H](C)OC(=O)[C@H](C)OC(=O)[C@H](C)OC(=O)[C@H](C)OC(C)=O)cc21 [28-1, dorzolamide-acetyl PLA (n=5)]
solubility [3, 5]: > 50 mg/mL | solubility [3, 6]: > 50 mg/mL | solubility [3, 7]: < 1 mg/mL | IC50 [2]: 89.2 ± 18.1 nM

CCN[C@H]1C[C@H](C)S(=O)(=O)c2sc(S(=O)(=O)NC(=O)[C@H](C)OC(=O)[C@H](C)OC(=O)[C@H](C)OC(=O)[C@H](C)OC(=O)[C@H](C)OC(=O)[C@H](C)OC(C)=O)cc21 [29-1, dorzolamide-acetyl PLA (n=6)]
solubility [3, 5]: > 50 mg/mL | solubility [3, 6]: > 50 mg/mL | solubility [3, 7]: < 1 mg/mL

CCN[C@H]1CN(CCCOC)S(=O)(=O)c2sc(S(=O)(=O)NC(=O)[C@H](C)O)cc21 [32-3, brinzolamide-PLA (n=1)]
in vitro stability / degradation kinetics [1]: slowest | primary compound remaining ([1]; 14 days): > 98% | IC50 [2]: 5.78 ± 3.78 nM

CCN[C@H]1CN(CCCOC)S(=O)(=O)c2sc(S(=O)(=O)NC(=O)[C@H](C)OC(=O)[C@H](C)O)cc21 [33-2, brinzolamide-PLA (n=2)]
solubility [3, 5]: > 50 mg/mL | solubility [3, 6]: > 50 mg/mL | solubility [3, 7]: > 50 mg/mL | primary compound remaining ([1]; 14 days): approximately 53% | IC50 [2]: 10.7 ± 7.27 nM

CCN[C@H]1CN(CCCOC)S(=O)(=O)c2sc(S(=O)(=O)NC(=O)[C@H](C)OC(=O)[C@H](C)OC(=O)[C@H](C)O)cc21 [34-2, brinzolamide-PLA (n=3)]
solubility [3, 5]: > 50 mg/mL | solubility [3, 6]: > 50 mg/mL | solubility [3, 7]: > 50 mg/mL | in vitro stability / degradation kinetics [1]: minimal degradation to the parent compound | primary compound remaining ([1]; day 7): approximately 2.7% | IC50 [2]: 21.5 ± 11.2 nM

CCN[C@H]1CN(CCCOC)S(=O)(=O)c2sc(S(=O)(=O)NC(=O)[C@H](C)OC(=O)[C@H](C)OC(=O)[C@H](C)OC(C)=O)cc21 [36-1, brinzolamide-acetyl PLA (n=3)]
solubility [3, 5]: > 50 mg/mL | solubility [3, 6]: > 50 mg/mL | solubility [3, 7]: > 50 mg/mL | primary compound remaining ([1]; day 7): approximately 15.4%

CCN[C@H]1CN(CCCOC)S(=O)(=O)c2sc(S(=O)(=O)NC(=O)[C@H](C)OC(=O)[C@H](C)OC(=O)[C@H](C)OC(=O)[C@H](C)OC(C)=O)cc21 [37-1, brinzolamide-acetyl PLA (n=4)]
solubility [3, 5]: > 50 mg/mL | solubility [3, 6]: > 50 mg/mL | solubility [3, 7]: < 1 mg/mL | IC50 [2]: 41.5 ± 11.2 nM

CCN[C@H]1CN(CCCOC)S(=O)(=O)c2sc(S(=O)(=O)NC(=O)[C@H](C)OC(=O)[C@H](C)OC(=O)[C@H](C)OC(=O)[C@H](C)OC(=O)[C@H](C)OC(C)=O)cc21 [38-1, brinzolamide-acetyl PLA (n=5)]
solubility [3, 5]: > 50 mg/mL | solubility [3, 6]: > 50 mg/mL | solubility [3, 7]: < 1 mg/mL | IC50 [2]: 102 ± 31.4 nM

CCN[C@H]1CN(CCCOC)S(=O)(=O)c2sc(S(=O)(=O)NC(=O)[C@H](C)OC(=O)[C@H](C)OC(=O)[C@H](C)OC(=O)[C@H](C)OC(=O)[C@H](C)OC(=O)[C@H](C)OC(C)=O)cc21 [39-1, brinzolamide-acetyl PLA (n=6)]
solubility [3, 5]: > 50 mg/mL | solubility [3, 6]: > 50 mg/mL | solubility [3, 7]: < 1 mg/mL | IC50 [2]: 172 ± 35.6 nM

CCN[C@H]1CN(CCCOC)S(=O)(=O)c2sc(S(=O)(=O)NC(=O)[C@H](C)OC(=O)[C@H](C)OC(=O)[C@H](C)OC(C)(C)C)cc21 [40-1, brinzolamide-t-butyl PLA (n=3)]
in vitro stability / degradation kinetics [1]: significantly slower than its acetylated (36-1) or uncapped counterpart (34-2)

CCN(CC)CCNC(=O)c1c(C)[nH]c(/C=C2\C(=O)Nc3ccc(N)cc32)c1C [47-1, 5-[5-amino-2-oxo-1,2-dihydro-indol-(3Z)-ylidenemethyl]-2,4-dimethyl-1H-pyrrole-3-carboxylic acid (2-diethylamino-ethyl)-amide]
solubility [3, 6]: > 50 mg/mL | solubility [3, 7]: < 1 mg/mL

C=C(CC)C(=O)c1ccc(OCC(=O)O)c(Cl)c1Cl [54-1, ethacrynic acid]
Solubility DMSO ([3]; DMSO): >50 mg/mL | Solubility Water ([3]; water / aqueous solvent): <1.0 mg/mL

CCN[C@H]1C[C@H](C)S(=O)(=O)c2sc(S(=O)(=O)NC(=O)[C@H](C)OC(=O)[C@H](C)OC(=O)[C@H](C)OC(=O)CCC(=O)Oc3ccc4c(c3)/C(=C/c3[nH]c(C)c(C(=O)NCCN(CC)CC)c3C)C(=O)N4)cc21 [56-5, (3Z)-3-[(4-{[2-(Diethylamino)ethyl]carbamoyl}-3,5-dimethyl-1H-pyrrol-2-yl)methylidene]-2-oxo-2,3-dihydro-1H-indol-5-yl 1-(2S)-1-{[(2S)-1-[(1S)-1-({[(2S,4S)-4-(ethylamino)-2-methyl-1,1-dioxo-2H,3H,4H-1λ^6-thieno[2,3-b]thiopyran-6-yl]sulfonyl}carbamoyl)ethoxy]-1-oxopropan-2-yl]oxy}-1-oxopropan-2-yl butanedioate]
solubility [3, 6]: > 50 mg/mL | solubility [3, 7]: < 1 mg/mL | carbonic anhydrase inhibitory activity [2]: lowest inhibitory activity | IC50 [2]: 184 ± 44.8 nM

CCN[C@H]1CN(CCCOC)S(=O)(=O)c2sc(S(=O)(=O)NC(=O)[C@H](C)OC(=O)[C@H](C)OC(=O)[C@H](C)OC(=O)[C@H](C)OC(=O)CCC(=O)Oc3ccc4c(c3)/C(=C/c3[nH]c(C)c(C(=O)NCCN(CC)CC)c3C)C(=O)N4)cc21 [60-1, brinzolamide-PLA(n=4)-succinate-5-hydroxy-Sunitinib]
solubility [3, 6]: > 50 mg/mL | solubility [3, 7]: < 1 mg/mL | PLA (n=4) signal ([4]; after one day of incubation): 15.7% | PLA (n=4) signal ([4]; before incubation): 83% | degradation kinetics ([4]; one day): rapidly hydrolyzed

CCN(CC)CCNC(=O)c1c(C)[nH]c(/C=C2\C(=O)Nc3ccc(OC(=O)CCCCC(=O)N(CC)[C@H]4CN(CCCOC)S(=O)(=O)c5sc(S(=O)(=O)NC(=O)[C@H](C)OC(=O)[C@H](C)OC(=O)[C@H](C)O)cc54)cc32)c1C [61-2, (3Z)-3-[(4-{[2-(diethylamino)ethyl]carbamoyl}-3,5-dimethyl-1H-pyrrol-2-yl)methylidene]-2-oxo-2,3-dihydro-1H-indol-5-yl 5-{ethyl[(4R)-6-{[(2S)-2-{[(2S)-2-{[(2S)-2-hydroxypropanoyl]oxy}propanoyl]oxy}propanamido]sulfonyl}-2-(3-methoxypropyl)-1,1-dioxo-2H,3H,4H-1λ^6-thieno[3,2-e][1,2]thiazin-4-yl]carbamoyl}pentanoate]
solubility [3, 6]: > 50 mg/mL | solubility [3, 7]: < 1 mg/mL

CCN[C@H]1CN(CCCOC)S(=O)(=O)c2sc(S(=O)(=O)NC(=O)[C@H](C)OC(=O)[C@H](C)OC(=O)[C@H](C)OC(=O)CCCCC(=O)Oc3ccc4c(c3)/C(=C/c3[nH]c(C)c(C(=O)NCCN(CC)CC)c3C)C(=O)N4)cc21 [61-3, (3Z)-3-[(4-{[2-(diethylamino)ethyl]carbamoyl}-3,5-dimethyl-1H-pyrrol-2-yl)methylidene]-2-oxo-2,3-dihydro-1H-indol-5-yl 1-(2S)-1-[(2S)-1-[(1S)-1-({[(4R)-4-(ethylamino)-2-(3-methoxypropyl)-1,1-dioxo-2H,3H,4H-1λ^6-thieno[3,2-e][1,2]thiazin-6-yl]sulfonyl}carbamoyl)ethoxy]-1-oxopropan-2-yl]oxy}-1-oxopropan-2-yl hexanedioate]
Solubility DMSO ([3]; DMSO): >50 mg/mL | Solubility Water ([3]; water / aqueous solvent): <1.0 mg/mL

CCN[C@H]1CN(CCCOC)S(=O)(=O)c2sc(S(N)(=O)=O)cc21 [Brinzolamide, reference compound]
solubility [3, 5]: < 7.5 mg/mL | Solubility DMSO ([3]; DMSO): >50 mg/mL | solubility [3, 6]: > 50 mg/mL | solubility [3, 7]: < 1 mg/mL | Solubility Water ([3]; water / aqueous solvent): <1.0 mg/mL

CCN[C@H]1C[C@H](C)S(=O)(=O)c2sc(S(N)(=O)=O)cc21 [Dorzolamide, reference compound]
solubility [3, 5]: < 1 mg/mL | solubility [3, 6]: < 1 mg/mL | organic solubility ([3]; organic solvent): low organic solubility | solubility [3, 7]: > 50 mg/mL | Solubility Water ([3]; water / aqueous solvent): >50 mg/mL
